The source of these data is patent US20140358094A1, “COMPOSITION, THE NANO-EMULSION AND TRANSDERMAL PATCH, METHODS OF PREPARATION AND USE THEREOF FOR TREATING TRAUMATIC INJURIES” (Nano and Advanced Materials Institute Limited, priority 2013, published 2014).

A short description of this data set: In vitro skin diffusion study, vertical Franz diffusion cell, HPLC-ESI-MS of markers. The format is in vitro ADME, pig. The conditions noted are these: 24 hours; for elevation of diffusion properties, transdermal patch relative to herbal paste control, receiving medium: FIG. 4A, markers diffused in the receiving medium; for elevation of diffusion properties, transdermal patch relative to herbal paste control, pig skin: FIG. 4B, markers remained in the pig skin; for percentage by weight of marker diffused to the dermis (remained in pig skin), Herbal Paste (Control) / percentage by weight of marker in the receiving cell, Herbal Paste (Control): donor: herbal paste of Example 1; for percentage by weight of marker diffused to the dermis (remained in pig skin), Herbal Paste (Control) / percentage by weight of marker in the receiving cell, Herbal Paste (Control) / percentage by weight of marker diffused to the dermis (remained in pig skin), Transdermal Patch (Test Sample) / percentage by weight of marker in the receiving cell, Transdermal Patch (Test Sample): 37° C., pig skin; for percentage by weight of marker diffused to the dermis (remained in pig skin), Transdermal Patch (Test Sample) / percentage by weight of marker in the receiving cell, Transdermal Patch (Test Sample): donor: transdermal patch of Example 4.2. The method, then:
A vertical Franz diffusion cell (Hanson Research, USA) is used to carry out in vitro skin diffusion study. […] The receiving medium is formed by physiological saline solution of (0.9% NaCl). The donor compartment is filled with the test sample or control sample. […] After 24 hours, contents of the receiving cell and pig skin sample are collected, the solution from the receiving cell (i.e. receiving medium) and pig skin are detected for chemical markers found therein in order to analyze the transdermal diffusion rate of the test sample and control sample. The test is performed in triplicate. HPLC-ESI-MS is used to detect diffused markers and control sample. Agilent 1290 Infinity LC system (purchased from Agilent Technologies) having a vacuum device, a binary liquid pump, an autosampler, Agilent 6410 triple quadrupole (Triple Quad) LC/MS connected with a Agilent MassHunter computer software (Workstation) is used. Acquity UPLC HSS T3 1.8 μm (2.1 mm×150 mm) column is used and the Acquity UPLC is maintained a temperature of 40° C. […] The flow rate is controlled at 0.5 mL/min, and injection volume of 20 µL. MS analysis using Agilent 6410 triple quadrupole LC/MS configured with ESI MS is carried out under negative ion mode and multiple reaction monitoring modes. Target ions of HYA is m/z 611.2->325.0; Rg1 is m/z 799.5->637.4; […] is m/z 927.5->603.3; Rb1 is m/z 1107.6->119.0; Kae is m/z 285.0->117.0; Emo is m/z 269.0->241.0; Rhe is m/z 283.0->239.0 and OA is m/z 455.3->407.4.

For `Cc1cc(O)c2c(c1)C(=O)c1cc(O)cc(O)c1C2=O` [Emo, Emodin], the “elevation of diffusion properties, transdermal patch relative to herbal paste control, receiving medium” value is on record as 203 times; the “elevation of diffusion properties, transdermal patch relative to herbal paste control, pig skin” value worked out at 5 times; the “percentage by weight of marker diffused to the dermis (remained in pig skin), Herbal Paste (Control)” value is on record as 0.2773 wt %; the “percentage by weight of marker diffused to the dermis (remained in pig skin), Transdermal Patch (Test Sample)” value stood at 1.3656 wt %. Under “receiving medium 0.9% NaCl”, the “percentage by weight of marker in the receiving cell, Herbal Paste (Control)” value was determined as 0.0091 wt % and the “percentage by weight of marker in the receiving cell, Transdermal Patch (Test Sample)” value amounted to 1.8494 wt %.
Consider `CC(C)=CCC[C@](C)(O[C@@H]1O[C@H](CO)[C@@H](O)[C@H](O)[C@H]1O)[C@H]1CC[C@]2(C)[C@@H]1[C@H](O)C[C@@H]1[C@@]3(C)CC[C@H](O)C(C)(C)[C@@H]3[C@@H](O[C@@H]3O[C@H](CO)[C@@H](O)[C@H](O)[C@H]3O)C[C@]12C` [Rg1, Ginsenoside Rg1], for which the “elevation of diffusion properties, transdermal patch relative to herbal paste control, receiving medium” value is 14 times and the “elevation of diffusion properties, transdermal patch relative to herbal paste control, pig skin” value came to 21 times. For the same compound, under “receiving medium 0.9% NaCl”, the “percentage by weight of marker in the receiving cell, Herbal Paste (Control)” value came out at 1.1884 wt % and the “percentage by weight of marker in the receiving cell, Transdermal Patch (Test Sample)” value is reported as 16.3635 wt %.
Turning to `O=c1c(O)c(-c2ccc(O)cc2)oc2cc(O)cc(O)c12` [Kae, Kaempferol], the “elevation of diffusion properties, transdermal patch relative to herbal paste control, receiving medium” value is recorded as 11 times; the “elevation of diffusion properties, transdermal patch relative to herbal paste control, pig skin” value came out at 12 times; the “percentage by weight of marker diffused to the dermis (remained in pig skin), Herbal Paste (Control)” value is 0.7532 wt %; the “percentage by weight of marker diffused to the dermis (remained in pig skin), Transdermal Patch (Test Sample)” value amounted to 9.0852 wt %. Where the note is “receiving medium 0.9% NaCl”, the “percentage by weight of marker in the receiving cell, Herbal Paste (Control)” value came out at 6.5294 wt % and the “percentage by weight of marker in the receiving cell, Transdermal Patch (Test Sample)” value stood at 72.3590 wt %.
Consider `O=C(O)c1cc(O)c2c(c1)C(=O)c1cccc(O)c1C2=O` [Rhein], for which the “elevation of diffusion properties, transdermal patch relative to herbal paste control, receiving medium” value stood at 21 times; the “elevation of diffusion properties, transdermal patch relative to herbal paste control, pig skin” value is listed as 11 times; the “percentage by weight of marker diffused to the dermis (remained in pig skin), Herbal Paste (Control)” value came to 0.1371 wt %; the “percentage by weight of marker diffused to the dermis (remained in pig skin), Transdermal Patch (Test Sample)” value is on record as 1.4277 wt %. Where the note is “receiving medium 0.9% NaCl”, the “percentage by weight of marker in the receiving cell, Herbal Paste (Control)” value is 0.2299 wt % and the “percentage by weight of marker in the receiving cell, Transdermal Patch (Test Sample)” value was 4.8924 wt %.
As to `CC(C)=CCC[C@](C)(O[C@@H]1O[C@H](CO[C@@H]2O[C@H](CO)[C@@H](O)[C@H](O)[C@H]2O)[C@@H](O)[C@H](O)[C@H]1O)[C@H]1CC[C@]2(C)[C@@H]1[C@H](O)C[C@@H]1[C@@]3(C)CC[C@H](O[C@@H]4O[C@H](CO)[C@@H](O)[C@H](O)[C@H]4O[C@@H]4O[C@H](CO)[C@@H](O)[C@H](O)[C@H]4O)C(C)(C)[C@@H]3CC[C@]12C` [Rb1, Ginsenoside Rb1], the “elevation of diffusion properties, transdermal patch relative to herbal paste control, receiving medium” value is given as 472 times and the “elevation of diffusion properties, transdermal patch relative to herbal paste control, pig skin” value amounted to 17 times. Under “receiving medium 0.9% NaCl”, the “percentage by weight of marker in the receiving cell, Herbal Paste (Control)” value was 0.0167 wt % and the “percentage by weight of marker in the receiving cell, Transdermal Patch (Test Sample)” value was 7.8820 wt %.
Turning to Hydrosafflower yellow A [HYA], the “elevation of diffusion properties, transdermal patch relative to herbal paste control, receiving medium” value is 8 times; the “elevation of diffusion properties, transdermal patch relative to herbal paste control, pig skin” value was 41 times; the “percentage by weight of marker diffused to the dermis (remained in pig skin), Herbal Paste (Control)” value is given as 0.0117 wt %; the “percentage by weight of marker diffused to the dermis (remained in pig skin), Transdermal Patch (Test Sample)” value came to 0.4772 wt %. Also, under “receiving medium 0.9% NaCl”, the “percentage by weight of marker in the receiving cell, Herbal Paste (Control)” value came to 2.0879 wt % and the “percentage by weight of marker in the receiving cell, Transdermal Patch (Test Sample)” value was 16.5104 wt %.
Regarding `CC1(C)CC[C@]2(C(=O)O)CC[C@]3(C)C(=CC[C@@H]4[C@@]5(C)CC[C@H](O)C(C)(C)[C@@H]5CC[C@]43C)[C@@H]2C1` [OA, Oleanolic Acid], the “elevation of diffusion properties, transdermal patch relative to herbal paste control, pig skin” value was 47 times; the “percentage by weight of marker diffused to the dermis (remained in pig skin), Herbal Paste (Control)” value is 0.1253 wt %; the “percentage by weight of marker diffused to the dermis (remained in pig skin), Transdermal Patch (Test Sample)” value was found to be 5.8588 wt %. Moreover, under “receiving medium 0.9% NaCl”, the “percentage by weight of marker in the receiving cell, Herbal Paste (Control)” value is 0.0000 wt %; the “percentage by weight of marker in the receiving cell, Transdermal Patch (Test Sample)” value amounted to 0.0000 wt %; the “detection in the receiving medium (in words)” value is “cannot be detected”.
In the case of `CC1(C)CC[C@]2(C(=O)O[C@@H]3O[C@H](CO[C@@H]4O[C@H](CO)[C@@H](O)[C@H](O)[C@H]4O)[C@@H](O)[C@H](O)[C@H]3O)CC[C@]3(C)C(=CC[C@@H]4[C@@]5(C)CC[C@H](O[C@@H]6OC[C@H](O)[C@H](O)[C@H]6O)[C@@](C)(CO)[C@@H]5CC[C@]43C)[C@@H]2C1` [ASP6, Asperosaponin VI], the “elevation of diffusion properties, transdermal patch relative to herbal paste control, receiving medium” value was 32 times; the “elevation of diffusion properties, transdermal patch relative to herbal paste control, pig skin” value stood at 33 times; the “percentage by weight of marker diffused to the dermis (remained in pig skin), Herbal Paste (Control)” value came out at 0.0859 wt %; the “percentage by weight of marker diffused to the dermis (remained in pig skin), Transdermal Patch (Test Sample)” value was 2.8010 wt %. For the setting “receiving medium 0.9% NaCl”, the “percentage by weight of marker in the receiving cell, Herbal Paste (Control)” value stood at 0.1375 wt % and the “percentage by weight of marker in the receiving cell, Transdermal Patch (Test Sample)” value is 4.4904 wt %.
